Key:
Format in all cases: functional
[1] = test system: COLO 205; test: Growth inhibition of human COLO 205 cells assessed as growth percentage at 10 uM measured after 48 hrs by sulforhodamine B assay relative to control; conditions: read-out: Activity
[2] = test system: Panel renal (Carcinoma cell lines); test: cells; conditions: Homo sapiens, time 48 hrs
Description: Growth inhibition of human Panel renal (Carcinoma cell lines) incubated for 48 hrs by sulforhodamine B assay

[3] = test system: HCT-116; test: cells; conditions: Homo sapiens, time 48 hrs
Description: Growth inhibition of human HCT-116 cells incubated for 48 hrs by sulforhodamine B assay

[4] = test system: SK-MEL-5; test: Growth inhibition of human SK-MEL-5 cells assessed as growth percentage at 10 uM measured after 48 hrs by sulforhodamine B assay relative to control; conditions: read-out: Activity
[5] = test system: SK-MEL-28; test: cells; conditions: Homo sapiens, time 48 hrs
Description: Growth inhibition of human SK-MEL-28 cells incubated for 48 hrs by sulforhodamine B assay

[6] = test system: SR; test: cells; conditions: Homo sapiens, time 48 hrs
Description: Growth inhibition of human SR cells incubated for 48 hrs by sulforhodamine B assay

[7] = test system: MDA-MB-231; test: cells; conditions: Homo sapiens, time 48 hrs
Description: Growth inhibition of human MDA-MB-231/ATCC cells incubated for 48 hrs by sulforhodamine B assay

[8] = test system: HOP-62; test: cells; conditions: Homo sapiens, time 48 hrs
Description: Growth inhibition of human HOP-62 cells incubated for 48 hrs by sulforhodamine B assay

[9] = test system: HCT-15; test: cells; conditions: Homo sapiens, time 48 hrs
Description: Growth inhibition of human HCT-15 cells incubated for 48 hrs by sulforhodamine B assay

[10] = test system: RXF 393; test: cells; conditions: Homo sapiens, time 48 hrs
Description: Growth inhibition of human RXF 393 cells incubated for 48 hrs by sulforhodamine B assay

[11] = test system: HT-29; test: cells; conditions: Homo sapiens, time 48 hrs
Description: Growth inhibition of human HT-29 cells incubated for 48 hrs by sulforhodamine B assay

[12] = test system: Hs-578T; test: cells; conditions: Homo sapiens, time 48 hrs
Description: Growth inhibition of human Hs-578T cells incubated for 48 hrs by sulforhodamine B assay

[13] = test system: MDA-MB-468; test: cells; conditions: Homo sapiens, time 48 hrs
Description: Growth inhibition of human MDA-MB-468 cells incubated for 48 hrs by sulforhodamine B assay

[14] = test system: PC-3; test: cells; conditions: Homo sapiens, time 48 hrs
Description: Growth inhibition of human PC-3 cells incubated for 48 hrs by sulforhodamine B assay

[15] = test system: Panel breast (Carcinoma cell lines); test: cells; conditions: Homo sapiens, time 48 hrs
Description: Growth inhibition of human Panel breast (Carcinoma cell lines) incubated for 48 hrs by sulforhodamine B assay

[16] = test system: CCRF-CEM; test: cells; conditions: Homo sapiens, time 48 hrs
Description: Growth inhibition of human CCRF-CEM cells incubated for 48 hrs by sulforhodamine B assay

[17] = test system: HOP-92; test: cells; conditions: Homo sapiens, time 48 hrs
Description: Growth inhibition of human HOP-92 cells incubated for 48 hrs by sulforhodamine B assay

[18] = test system: MCF7; test: cells; conditions: Homo sapiens, time 48 hrs
Description: Growth inhibition of human MCF7 cells incubated for 48 hrs by sulforhodamine B assay

[19] = test system: NCI-H23; test: cells; conditions: Homo sapiens, time 48 hrs
Description: Growth inhibition of human NCI-H23 cells incubated for 48 hrs by sulforhodamine B assay

[20] = test system: IGROV-1; test: cells; conditions: Homo sapiens, time 48 hrs
Description: Growth inhibition of human IGROV-1 cells incubated for 48 hrs by sulforhodamine B assay

[21] = test system: SNB-75; test: cells; conditions: Homo sapiens, time 48 hrs
Description: Growth inhibition of human SNB-75 cells incubated for 48 hrs by sulforhodamine B assay

[22] = test system: NCI-H522; test: cells; conditions: Homo sapiens, time 48 hrs
Description: Growth inhibition of human NCI-H522 cells incubated for 48 hrs by sulforhodamine B assay

[23] = test system: UACC-257; test: cells; conditions: Homo sapiens, time 48 hrs
Description: Growth inhibition of human UACC-257 cells incubated for 48 hrs by sulforhodamine B assay

[24] = test system: LOX IMVI; test: cells; conditions: Homo sapiens, time 48 hrs
Description: Growth inhibition of human LOX IMVI cells incubated for 48 hrs by sulforhodamine B assay

[25] = test system: A498; test: cells; conditions: Homo sapiens, time 48 hrs
Description: Growth inhibition of human A498 cells incubated for 48 hrs by sulforhodamine B assay

[26] = test system: OVCAR-4; test: cells; conditions: Homo sapiens, time 48 hrs
Description: Growth inhibition of human OVCAR-4 cells incubated for 48 hrs by sulforhodamine B assay

[27] = test system: UACC-62; test: cells; conditions: Homo sapiens, time 48 hrs
Description: Growth inhibition of human UACC-62 cells incubated for 48 hrs by sulforhodamine B assay

[28] = test system: SF-295; test: cells; conditions: Homo sapiens, time 48 hrs
Description: Growth inhibition of human SF-295 cells incubated for 48 hrs by sulforhodamine B assay

[29] = test system: OVCAR-8; test: cells; conditions: Homo sapiens, time 48 hrs
Description: Growth inhibition of human OVCAR-8 cells incubated for 48 hrs by sulforhodamine B assay

[30] = test system: U-251; test: cells; conditions: Homo sapiens, time 48 hrs
Description: Growth inhibition of human U-251 cells incubated for 48 hrs by sulforhodamine B assay

[31] = test system: Panel CNS (Carcinoma cell lines); test: cells; conditions: Homo sapiens, time 48 hrs
Description: Growth inhibition of human Panel CNS (Carcinoma cell lines) incubated for 48 hrs by sulforhodamine B assay

[32] = test system: Panel colon (Carcinoma cell lines); test: cells; conditions: Homo sapiens, time 48 hrs
Description: Growth inhibition of human Panel colon (Carcinoma cell lines) incubated for 48 hrs by sulforhodamine B assay

[33] = test system: Panel ovarian (Carcinoma cell lines); test: cells; conditions: Homo sapiens, time 48 hrs
Description: Growth inhibition of human Panel ovarian (Carcinoma cell lines) incubated for 48 hrs by sulforhodamine B assay

[34] = test system: K562; test: cells; conditions: Homo sapiens, time 48 hrs
Description: Growth inhibition of human K562 cells incubated for 48 hrs by sulforhodamine B assay

[35] = test system: TK-10; test: cells; conditions: Homo sapiens, time 48 hrs
Description: Growth inhibition of human TK-10 cells incubated for 48 hrs by sulforhodamine B assay

[36] = test system: Panel NCI-60 (60 carcinoma cell lines); test: cells; conditions: Homo sapiens, time 48 hrs
Description: Growth inhibition of human Panel NCI-60 (60 carcinoma cell lines) incubated for 48 hrs by sulforhodamine B assay

[37] = test system: UO-31; test: cells; conditions: Homo sapiens, time 48 hrs
Description: Growth inhibition of human UO-31 cells incubated for 48 hrs by sulforhodamine B assay

[38] = test system: Panel prostate (Carcinoma cell lines); test: cells; conditions: Homo sapiens, time 48 hrs
Description: Growth inhibition of human Panel prostate (Carcinoma cell lines) incubated for 48 hrs by sulforhodamine B assay

[39] = test system: NCI-H322M; test: cells; conditions: Homo sapiens, time 48 hrs
Description: Growth inhibition of human NCI-H322M cells incubated for 48 hrs by sulforhodamine B assay

[40] = test system: Panel leukemia (Carcinoma cell lines); test: cells; conditions: Homo sapiens, time 48 hrs
Description: Growth inhibition of human Panel leukemia (Carcinoma cell lines) incubated for 48 hrs by sulforhodamine B assay

[41] = test system: A549; test: cells; conditions: Homo sapiens, time 48 hrs
Description: Growth inhibition of human A549/ATCC cells incubated for 48 hrs by sulforhodamine B assay

[42] = test system: Panel melanoma (Carcinoma cell lines); test: cells; conditions: Homo sapiens, time 48 hrs
Description: Growth inhibition of human Panel melanoma (Carcinoma cell lines) incubated for 48 hrs by sulforhodamine B assay

[43] = test system: OVCAR-3; test: cells; conditions: Homo sapiens, time 48 hrs
Description: Growth inhibition of human OVCAR-3 cells incubated for 48 hrs by sulforhodamine B assay

[44] = test system: KM12; test: cells; conditions: Homo sapiens, time 48 hrs
Description: Growth inhibition of human KM12 cells incubated for 48 hrs by sulforhodamine B assay

[45] = cells; conditions: Homo sapiens, Non-small cell lung cancer cell line; time 48 hrs
Description: Growth inhibition of human Non-small cell lung cancer cell line incubated for 48 hrs by sulforhodamine B assay

[46] = test system: NCI-H226; test: cells; conditions: Homo sapiens, time 48 hrs
Description: Growth inhibition of human NCI-H226 cells incubated for 48 hrs by sulforhodamine B assay

[47] = test system: NCI-H460; test: cells; conditions: Homo sapiens, time 48 hrs
Description: Growth inhibition of human NCI-H460 cells incubated for 48 hrs by sulforhodamine B assay

[48] = read-out: LC50 (the source's name)

## Fc1ccc(Nc2ccc3c(OCCCN4CCOCC4)cccc3n2)cc1F
[1]
  growth at 10 µM: 66.5%

## CN1CCN(CCCOc2cccc3nc(Nc4ccc(F)c(F)c4)ccc23)CC1
[2]
  GI50: 4.16 µM
  LC50 (lethal concentration 50%): 18.9 µM
  TGI: 8.98 µM
[3]
  GI50: 3.8 µM
[4]
  growth at 10 µM: -26.8%
[5]
  GI50: 1.08 µM
[6]
  GI50: 0.87 µM
[7]
  GI50: 0.937 µM
[8]
  GI50: 1.25 µM
[9]
  GI50: 0.96 µM
[10]
  GI50: 2.11 µM
[11]
  GI50: 0.62 µM
[12]
  GI50: 4.73 µM
[13]
  GI50: 2.11 µM
[14]
  GI50: 3.83 µM
[15]
  GI50: 3.14 µM
  TGI: 7.98 µM
[15]; [48]
  CC50: 20.3 µM
[16]
  GI50: 2.42 µM
[17]
  GI50: 1.43 µM
[18]
  GI50: 3.33 µM
[19]
  GI50: 4.67 µM
[20]
  GI50: 5.55 µM
[21]
  GI50: 3.92 µM
[22]
  GI50: 1.01 µM
[23]
  GI50: 0.66 µM
[24]
  GI50: 1.03 µM
[25]
  GI50: 5.66 µM
[26]
  GI50: 6.42 µM
[27]
  GI50: 0.7 µM
[28]
  GI50: 4.64 µM
[29]
  GI50: 5.13 µM
[30]
  GI50: 2.68 µM
[31]
  GI50: 4.1 µM
  TGI: 9.09 µM
[31]; [48]
  CC50: 16.1 µM
[32]
  GI50: 2.11 µM
  TGI: 5.9 µM
[32]; [48]
  CC50: 12.2 µM
[33]
  GI50: 5.13 µM
  LC50: 20.5 µM
  TGI: 10.8 µM
[34]
  GI50: 0.66 µM
[35]
  GI50: 2.63 µM
[36]
  GI50: 2.63 µM
  TGI: 6.76 µM
[36]; [48]
  CC50: 16.2 µM
[37]
  GI50: 4.34 µM
[38]
  GI50: 4.07 µM
  LC50 (concentration killing 50% of cells): 18 µM
  TGI: 8.55 µM
[39]
  GI50: 3.93 µM
[40]
  GI50: 2.6 µM
  LC50 (50% lethal concentration): 21.1 µM
  TGI: 7.09 µM
[41]
  GI50: 3.5 µM
[42]
  GI50: 1.69 µM
  LC50: 10.5 µM
  TGI: 4.4 µM
[43]
  GI50: 4.58 µM
[44]
  GI50: 2.35 µM
[45]
  GI50: 3.17 µM
  LC50 (50% lethal concentration): 18.9 µM
  TGI: 7.79 µM
[46]
  GI50: 5.51 µM
[47]
  GI50: 2.37 µM

Source: ChEMBL document CHEMBL4715724, “Novel 5-substituted-2-anilinoquinolines with 3-(morpholino or 4-methylpiperazin-1-yl)propoxy moiety as broad spectrum antiproliferative agents: Synthesis, cell based assays and kinase screening” (Bioorg Med Chem Lett, 2016)
